Where two headings read alike, the source gives them in different places.
Columns and labels:
Wildtype strain = test: HSP26 promoter GFP-uv reporter stress response, fluorimeter; format: cell-based, Saccharomyces cerevisiae; set-up: key: F = fluorescent activity from hsp reporter construct, indicating stress response is induced; NF = no fluorescence, no induction of stress response; conditions: predicted expectations
Description: (§1) Stress response gene reporter constructs are generally constructed as follows: approximately 500 bp to approximately 1,000 bp or more region upstream of the first start codon of the stress gene of interest (the region encompassing the stress response gene promoter) is fused to the coding region of a reporter polypeptide (e.g., GFP-uv in pRS316 (Sikorski and Hieter (1989) Genetics 122(1):19-27, Clontech). In a specific exemplary construct, approximately 500 bp of the sequence upstream of the hsp26 gene were ligated to the coding region of GFP-uv in pRS316 to provide for expression of the GFP-uv reporter polypeptide under control of the HSP26 promoter.
(§2) The above-described HSP26 construct and a control construct (containing no upstream HSP26 promoter sequence) is transformed into 4 strains: a wildtype strain and strains heterozygous for ALG7, HIS3, and TUB2. The his3 heterozygous strain is sensitive to 3-amino triazole; the alg7 heterozygous strain is sensitive to tunicamycin; and the tub2 heterozygous strain is sensitive to benomyl. The expression of hsp26 activity is then monitored using a fluorimeter. Comparisons (with predicted expectations) are as follows: […]

his3 heterozygous strain = conditions: cited from earlier work
alg7 heterozygote = test: HSP26 promoter GFP-uv reporter stress response, fluorimeter; format: cell-based, Saccharomyces cerevisiae; set-up: key: F = fluorescent activity from hsp reporter construct, indicating stress response is induced; NF = no fluorescence, no induction of stress response; conditions: predicted expectations
Description: as §1
(§3) 80% of all heterozygous deletion strains of Saccharomyces cerevisiae have been constructed. Heterozygous deletion strains were generated using homologous gene transplacement (Rothstein, R. (1991) Meth. Enzymol. 194:281-301) in wild-type diploid strains using standard methods. The resulting heterozygotes carry a deletion in one of the two copies of a given gene.
as §2

tub2 heterozygote = test: as above; format: cell-based, Saccharomyces cerevisiae; set-up: key: F = fluorescent activity from hsp reporter construct, indicating stress response is induced; NF = no fluorescence, no induction of stress response; conditions: predicted expectations
Description: as §1, §3, §2

his3 heterozygote = test: as above; format: cell-based, Saccharomyces cerevisiae; set-up: key: F = fluorescent activity from hsp reporter construct, indicating stress response is induced; NF = no fluorescence, no induction of stress response; conditions: predicted expectations
Description: as §1, §3, §2

[1] = tested on: yeast stress response genes; conditions: MMS 0.1%; published data; cited from earlier work
tub2 heterozygous strain = conditions: cited from earlier work
[2] = tested on: yeast stress response genes; conditions: published data, cited from earlier work

## Nc1nc[nH]n1 [3-amino triazole, 3-amino-triazole]
Wildtype strain
  fluorescent activity from hsp26 reporter construct: F
his3 heterozygous strain
  sensitivity of strain to drug: sensitive
alg7 heterozygote
  fluorescent activity from hsp26 reporter construct: F
tub2 heterozygote
  fluorescent activity from hsp26 reporter construct: F
his3 heterozygote
  fluorescent activity from hsp26 reporter construct: NF

## COS(C)(=O)=O [MMS]
[1]
  fold induction of AMS1 (YGL156W): 3.3 fold
  fold induction of DDR48 (YMR173w): 6 fold
  fold induction of GFA1 (YKL104C): 3.3 fold
  fold induction of GSC2 (YGR032W): 2.5 fold
  fold induction of HSP10 (YOR020C): 1 fold
  fold induction of HSP12 (YFL014W): 4.2 fold
  fold induction of HSP26 (YBR072W): 2.6 fold
  fold induction of HSP30 (YCR021C): 2 fold
  fold induction of HSP42 (YDR171w): 1.5 fold
  fold induction of HSP60 (YLR259C): 1 fold
  fold induction of HSP78 (YDR258C): 2.8 fold
  fold induction of HSP82 (YPL240C): 1.8 fold
  fold induction of HSP104 (YLL026W): 2 fold
  fold induction of HXT5 (YHR096C): 1.9 fold
  fold induction of ISF1 (YMR081C): 2.9 fold
  fold induction of PAI3 (YMR174C): 5.1 fold
  fold induction of PRY1 (YJL079C): 1 fold
  fold induction of PUT1 (YLR142W): 1 fold
  fold induction of SNZ3 (YFL059W): 2.3 fold
  fold induction of SSA1 (YAL005C): 6.4 fold
  fold induction of TSI1 (YLR178C): 5.7 fold
  fold induction of UBC5 (YDR059c): 5.5 fold
  fold induction of YBL049W: 1 fold
  fold induction of YDR018C: 1 fold
  fold induction of YFL030W: 5 fold
  fold induction of YFR026C: 2.2 fold
  fold induction of YGR043C: 3.5 fold
  fold induction of YIL042C: 1.4 fold
  fold induction of YIL117C: 2.3 fold
  fold induction of YJL144W: 1.6 fold
  fold induction of YKL107W: 1.7 fold
  fold induction of YLR053C: 1 fold
  fold induction of YLR080W: 5.6 fold
  fold induction of YLR194C: 1 fold
  fold induction of YMR040W: 1.5 fold
  fold induction of YMR090W: 8 fold
  fold induction of YMR107W: 1 fold
  fold induction of YNL194C: 2.9 fold
  fold induction of YPS3 (YLR121C): 1 fold

## CCCCNC(=O)n1c(NC(=O)OC)nc2ccccc21 [benomyl]
tub2 heterozygous strain
  sensitivity of strain to drug: sensitive
Wildtype strain
  fluorescent activity from hsp26 reporter construct: F
alg7 heterozygote
  fluorescent activity from hsp26 reporter construct: F
tub2 heterozygote
  fluorescent activity from hsp26 reporter construct: NF
his3 heterozygote
  fluorescent activity from hsp26 reporter construct: F

## C=CC[C@@H]1/C=C(\C)C[C@H](C)C[C@H](OC)[C@H]2O[C@@](O)(C(=O)C(=O)N3CCCC[C@H]3C(=O)O[C@H](/C(C)=C/[C@@H]3CC[C@@H](O)[C@H](OC)C3)[C@H](C)[C@@H](O)CC1=O)[C@H](C)C[C@@H]2OC [FK506]
[2]; FK506 50 μM
  fold induction of DDR48 (YMR173w): 1 fold
  fold induction of HSP10 (YOR020C): 1 fold
  fold induction of HSP12 (YFL014W): 1 fold
  fold induction of HSP26 (YBR072W): 7.1 fold
  fold induction of HSP30 (YCR021C): 2.3 fold
  fold induction of HSP42 (YDR171w): 8.7 fold
  fold induction of HSP60 (YLR259C): 1 fold
  fold induction of HSP78 (YDR258C): 1 fold
  fold induction of HSP82 (YPL240C): 1 fold
  fold induction of HSP104 (YLL026W): 1 fold
  fold induction of SSA1 (YAL005C): 1 fold
  fold induction of UBC5 (YDR059c): 1.1 fold
[2]; FK506 50 μm
  fold induction of AMS1 (YGL156W): 2.2 fold
  fold induction of GFA1 (YKL104C): 1 fold
  fold induction of GSC2 (YGR032W): 1.1 fold
  fold induction of HXT5 (YHR096C): 1.6 fold
  fold induction of ISF1 (YMR081C): 5.4 fold
  fold induction of PAI3 (YMR174C): 1 fold
  fold induction of PRY1 (YJL079C): 1 fold
  fold induction of PUT1 (YLR142W): 7.6 fold
  fold induction of SNZ3 (YFL059W): 6.3 fold
  fold induction of TSI1 (YLR178C): 1.3 fold
  fold induction of YBL049W: 6.7 fold
  fold induction of YDR018C: 8.9 fold
  fold induction of YFL030W: 2 fold
  fold induction of YFR026C: 3.7 fold
  fold induction of YGR043C: 2.1 fold
  fold induction of YIL042C: 2.7 fold
  fold induction of YIL117C: 1 fold
  fold induction of YJL144W: 7.6 fold
  fold induction of YKL107W: 2.5 fold
  fold induction of YLR053C: 5.5 fold
  fold induction of YLR080W: 5.5 fold
  fold induction of YLR194C: 1 fold
  fold induction of YMR040W: 1.6 fold
  fold induction of YMR090W: 1.2 fold
  fold induction of YMR107W: 5.9 fold
  fold induction of YNL194C: 6.3 fold
  fold induction of YPS3 (YLR121C): 2.5 fold

Source: patent US6743583B2, “Identification of drugs and drug targets by detection of the stress response” (priority 2000, dated 2004)
